Common to all, as to format: cell-based
The subject of experiment [1] is AsPC-1 (K-Ras G12D). Description: Potency assay: pERK in AsPC-1 cells. The settings on record: Homo sapiens, ASPC1; AsPC-1 cells, K-Ras G12D; read-out: pERK EC50 (AsPC-1 KRAS G12D).
Another experiment relates to NCI-H358 (K-Ras G12C). Description: CellTiter-Glo cell viability assay, H358. The settings on record: Homo sapiens, NCI-H358, 120 h, NCI-H358, K-Ras G12C, 5-day treatment; read-out: H358 Cell Viability IC50. The procedure, abridged:
(§1)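 Direct compound addition to plated cells; 5-day exposure; ~30 min RT equilibration; CellTiter-Glo luminescence. Normalization: (sample/avg DMSO)*100; 4-parameter logistic curve fit.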
(In ATP-based viability assays light output follows the ATP content of the culture.)

In experiment [2] the test system is AsPC-1 (K-Ras G12D). The experiment in a line: CellTiter-Glo cell viability assay, AsPC-1. As to conditions: Homo sapiens, ASPC1, 120 h, AsPC-1, K-Ras G12D, 5-day treatment; read-out: AsPC-1 Cell Viability IC50. Put shortly: as §1

Molecules are shown by their SMILES.

This passage reports EC50 and IC50 results from patent US11739074B2, “Ras inhibitors” (Revolution Medicines, Inc., priority 2019, dated 2023).

The EC50 is the concentration needed to bring the measured effect to its halfway point. The IC50 is the midpoint of a concentration-inhibition curve. Turning to `CCn1c(-c2cccnc2[C@H](C)OC)c2c3cc(ccc31)-c1csc(n1)C[C@H](NC(=O)[C@H](C(C)C)N(C)C(=O)N(C)CCN(C)C(=O)[C@@H]1CN1)C(=O)N1CCC[C@H](N1)C(=O)OCC(C)(C)C2` [Compound 217], the EC50 in the experiment with AsPC-1 (K-Ras G12D) [1] was less than 5000 nM. Besides, the concentration for half-maximal inhibition (IC50) in the experiment on NCI-H358 (K-Ras G12C) was in the range of 10 to 100 nM; with AsPC-1 (K-Ras G12D) [2], 100 to 1000 nM.

In the case of `CCn1c(-c2cccnc2[C@H](C)OC)c2c3cc(ccc31)-c1csc(n1)C[C@H](NC(=O)[C@H](C(C)C)N(C)C(=O)N1CCCN(C(=O)[C@H]3CN3)CC1)C(=O)N1CCC[C@H](N1)C(=O)OCC(C)(C)C2` [Compound 222], the EC50 in the experiment on AsPC-1 (K-Ras G12D) [1] is less than 5000 nM. In addition, the IC50 with NCI-H358 (K-Ras G12C) was less than 10 nM; in the experiment on AsPC-1 (K-Ras G12D) [2], 100 to 1000 nM.

Take `CCn1c(-c2cccnc2[C@H](C)OC)c2c3cc(ccc31)-c1csc(n1)C[C@H](NC(=O)[C@H](C(C)C)N(C)C(=O)N1CCCN(C(=O)[C@@H]3CN3)CC1)C(=O)N1CCC[C@H](N1)C(=O)OCC(C)(C)C2` [Compound 223]: in the experiment with AsPC-1 (K-Ras G12D) [1], the EC50 is less than 5000 nM. Besides, the IC50 in the experiment on NCI-H358 (K-Ras G12C) was in the range of 10 to 100 nM; in the experiment with AsPC-1 (K-Ras G12D) [2], 100 to 1000 nM.

With `CCn1c(-c2cccnc2[C@H](C)OC)c2c3cc(ccc31)-c1csc(n1)C[C@H](NC(=O)[C@H](C(C)C)N(C)C(=O)N1CC(CN(C)C(=O)[C@H]3CN3)C1)C(=O)N1CCC[C@H](N1)C(=O)OCC(C)(C)C2` [Compound 224], the EC50 in the experiment with AsPC-1 (K-Ras G12D) [1] was less than 5000 nM. Also, the IC50 was 10 to 100 nM in the experiment with NCI-H358 (K-Ras G12C) and 100 to 1000 nM in the experiment on AsPC-1 (K-Ras G12D) [2].

As to `CCn1c(-c2cccnc2[C@H](C)OC)c2c3cc(ccc31)-c1csc(n1)C[C@H](NC(=O)[C@H](C(C)C)N(C)C(=O)N1CC(CN(C)C(=O)[C@@H]3CN3)C1)C(=O)N1CCC[C@H](N1)C(=O)OCC(C)(C)C2` [Compound 225], the concentration for a half-maximal effect (EC50) in the experiment on AsPC-1 (K-Ras G12D) [1] is less than 5000 nM. Also, the IC50 in the experiment on NCI-H358 (K-Ras G12C) was in the range of 10 to 100 nM; with AsPC-1 (K-Ras G12D) [2], 100 to 1000 nM.

`CCn1c(-c2cccnc2[C@H](C)OC)c2c3cc(ccc31)-c1csc(n1)C[C@H](NC(=O)[C@H](C(C)C)N(C)C(=O)N1CC[C@@H](N(C)C(=O)[C@H]3CN3)C1)C(=O)N1CCC[C@H](N1)C(=O)OCC(C)(C)C2` [Compound 226]: the EC50 with AsPC-1 (K-Ras G12D) [1] was less than 5000 nM. Also, the IC50 is 10 to 100 nM with NCI-H358 (K-Ras G12C) and 1000 to 10000 nM with AsPC-1 (K-Ras G12D) [2].

On to `CCn1c(-c2cccnc2[C@H](C)OC)c2c3cc(ccc31)-c1csc(n1)C[C@H](NC(=O)[C@H](C(C)C)N(C)C(=O)N1CC[C@@H](N(C)C(=O)[C@@H]3CN3)C1)C(=O)N1CCC[C@H](N1)C(=O)OCC(C)(C)C2` [Compound 227], for which the EC50 in the experiment on AsPC-1 (K-Ras G12D) [1] is less than 5000 nM. In addition, the IC50 in the experiment on NCI-H358 (K-Ras G12C) lay in the range of 10 to 100 nM; in the experiment on AsPC-1 (K-Ras G12D) [2], 1000 to 10000 nM.

Take `CCn1c(-c2cccnc2[C@H](C)OC)c2c3cc(ccc31)-c1csc(n1)C[C@H](NC(=O)[C@H](C(C)C)N(C)C(=O)N1CC[C@H](N(C)C(=O)[C@H]3CN3)C1)C(=O)N1CCC[C@H](N1)C(=O)OCC(C)(C)C2` [Compound 228]: the 50% effective concentration (EC50) in the experiment on AsPC-1 (K-Ras G12D) [1] is less than 5000 nM. For the same compound, the IC50 with NCI-H358 (K-Ras G12C) is 10 to 100 nM; in the experiment with AsPC-1 (K-Ras G12D) [2] it was 100 to 1000 nM.

In the case of `CCn1c(-c2cc(C3CCN(C)CC3)cnc2[C@H](C)OC)c2c3cc(ccc31)-c1cc(O)cc(c1)C[C@H](NC(=O)[C@H](C1CCCC1)N(C)C(=O)CN(C)C(=O)[C@H]1CN1)C(=O)N1CCC[C@H](N1)C(=O)OCC(C)(C)C2` [Compound 230], the EC50 in the experiment with AsPC-1 (K-Ras G12D) [1] is less than 5000 nM. Besides, the IC50 in the experiment with NCI-H358 (K-Ras G12C) and with AsPC-1 (K-Ras G12D) [2] was 10 to 100 nM in each case.

In the case of `CCn1c(-c2cccnc2[C@H](C)OC)c2c3cc(ccc31)-c1cc(O)cc(c1)C[C@H](NC(=O)[C@H](C(C)C)N(C)C(=O)[C@H]1CCCN(C(=O)[C@@H]3CN3)C1)C(=O)N1CCC[C@H](N1)C(=O)OCC(C)(C)C2` [Compound 236], the concentration giving a half-maximal response (EC50) in the experiment with AsPC-1 (K-Ras G12D) [1] is less than 5000 nM. Besides, the figures for the IC50 with NCI-H358 (K-Ras G12C) and with AsPC-1 (K-Ras G12D) [2] were less than 10 nM and 1000 to 10000 nM, respectively.

Consider `CCn1c(-c2cccnc2[C@H](C)OC)c2c3cc(ccc31)-c1cc(O)cc(c1)C[C@H](NC(=O)[C@H](C(C)C)N(C)C(=O)[C@@]1(C)CCCN1C(=O)[C@H]1CN1)C(=O)N1CCC[C@H](N1)C(=O)OCC(C)(C)C2` [Compound 239], for which, in the experiment with AsPC-1 (K-Ras G12D) [1], the EC50 was less than 5000 nM. The values for the IC50 in the experiment on NCI-H358 (K-Ras G12C) and in the experiment with AsPC-1 (K-Ras G12D) [2] were 10 to 100 nM and 100 to 1000 nM, respectively.

Regarding `CCn1c(-c2cccnc2[C@H](C)OC)c2c3cc(ccc31)-c1cc(O)cc(c1)C[C@H](NC(=O)[C@H](C(C)C)N(C)C(=O)[C@]1(C)CCCN1C(=O)[C@H]1CN1)C(=O)N1CCC[C@H](N1)C(=O)OCC(C)(C)C2` [Compound 243], the concentration giving a half-maximal response (EC50) in the experiment with AsPC-1 (K-Ras G12D) [1] is less than 5000 nM. In addition, the IC50 in the experiment on NCI-H358 (K-Ras G12C) and in the experiment with AsPC-1 (K-Ras G12D) [2] was 100 to 1000 nM each time.
